Series [1] deals with Serine/threonine-protein kinase PLK1 (Homo sapiens, UniProt P53350). The experiment in a line: Binding affinity to recombinant PLK1 (unknown origin) assessed as dissociation constant by SPR analysis.
The test system of a further series is NCI-H460. The series is described as follows: Anticancer activity against human NCI-H460 cells assessed as inhibition of cell growth incubated for 48 hrs by crystal violet staining based analysis. It is filed as functional. As to conditions: NCI-H460, 48 h.
The subject of another series is MCF7. The series is described as follows: Anticancer activity against human MCF7 cells assessed as inhibition of cell growth incubated for 48 hrs by crystal violet staining based analysis. Format: functional. As to conditions: MCF7, 48 h.
The subject of another series is T-24. The experiment in a line: Anticancer activity against human T24 cells assessed as inhibition of cell growth incubated for 48 hrs by crystal violet staining based analysis. To be noted: T-24, 48 h. It is filed as functional.
Another series concerns SK-OV-3. The experiment in a line: Anticancer activity against human SK-OV-3 cells assessed as inhibition of cell growth incubated for 48 hrs by crystal violet staining based analysis. Format: functional. To be noted: SK-OV-3, 48 h.
The test system of a further series is MGC-803. The series is described as follows: Anticancer activity against human MGC-803 cells assessed as inhibition of cell growth incubated for 48 hrs by crystal violet staining based analysis. Format: functional. As to conditions: MGC-803, 48 h.
The next series relates to A549/CDDP. The experiment in a line: Anticancer activity against human A549/DDP cells assessed as inhibition of cell growth incubated for 48 hrs by crystal violet staining based analysis. Format: functional.
Series [2] can be described thus: Octanol-water partition coefficient, logP of the compound. It is filed as physicochemical.

Sequence of Serine/threonine-protein kinase PLK1 (P53350 whole entry): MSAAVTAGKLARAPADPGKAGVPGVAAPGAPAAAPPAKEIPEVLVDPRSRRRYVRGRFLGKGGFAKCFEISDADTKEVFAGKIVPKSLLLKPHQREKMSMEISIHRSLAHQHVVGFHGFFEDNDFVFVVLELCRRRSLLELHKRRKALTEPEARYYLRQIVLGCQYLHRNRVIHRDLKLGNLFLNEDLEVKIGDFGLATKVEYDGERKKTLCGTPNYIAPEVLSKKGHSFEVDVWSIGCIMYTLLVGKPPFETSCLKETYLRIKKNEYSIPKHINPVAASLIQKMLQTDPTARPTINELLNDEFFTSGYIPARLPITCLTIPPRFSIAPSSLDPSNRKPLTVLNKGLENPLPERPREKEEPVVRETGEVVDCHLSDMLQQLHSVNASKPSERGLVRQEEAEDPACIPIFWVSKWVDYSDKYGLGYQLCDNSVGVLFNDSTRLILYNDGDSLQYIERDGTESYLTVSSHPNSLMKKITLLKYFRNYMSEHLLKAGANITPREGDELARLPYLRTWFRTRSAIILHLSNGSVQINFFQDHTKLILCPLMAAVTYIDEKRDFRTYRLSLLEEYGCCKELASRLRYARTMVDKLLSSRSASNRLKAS

`CN(C)CCN1C(=O)c2cccc3c(S(=O)(=O)NCc4ccccc4F)ccc(c23)C1=O`: the equilibrium dissociation constant (Kd) in series [1] stood at 2.79 µM. Further, the IC50 in the series on NCI-H460 was found to be 10.8 µM; in the series with MCF7, 5.38 µM; in the series on T-24 it was 3.86 µM; in the series with SK-OV-3 it was 2.95 µM; in the series with MGC-803, 5.46 µM.

Turning to `COc1ccc(CNS(=O)(=O)c2ccc3c4c(cccc24)C(=O)N(CCN(C)C)C3=O)cc1`, the Kd in series [1] was found to be 8.06 µM. In addition, the IC50 was determined as 9.37 µM in the series with NCI-H460; 10.2 µM in the series with MCF7; 5.31 µM in the series with T-24; 4.99 µM with SK-OV-3; 6.44 µM in the series on MGC-803.

For the compound `CN(C)CCN1C(=O)c2cccc3c(S(=O)(=O)NCc4cccc(F)c4)ccc(c23)C1=O`, in series [1], the Kd was found to be 17.5 µM. Moreover, the IC50 in the series with NCI-H460 is 9.77 µM; with MCF7, 7.29 µM; in the series with T-24, 2.97 µM; in the series on SK-OV-3, 3.11 µM; in the series with MGC-803, 4.98 µM.

Take `CN(C)CCN1C(=O)c2cccc3c(S(=O)(=O)NCc4ccc(C(F)(F)F)cc4)ccc(c23)C1=O`: the Kd in series [1] amounted to 5.26 µM. Also, the IC50 was found to be 8.28 µM in the series with NCI-H460; 6.24 µM with MCF7; 2.57 µM with T-24; 7.42 µM in the series on SK-OV-3; 5.95 µM in the series with MGC-803.

Regarding `Cc1ccc(CNS(=O)(=O)c2ccc3c4c(cccc24)C(=O)N(CCN(C)C)C3=O)cc1`, the Kd in series [1] stood at 14.2 µM. Also, the IC50 in the series with NCI-H460 was 12.5 µM; in the series on MCF7 it was 10.5 µM; in the series with T-24 it was 5.89 µM; in the series on SK-OV-3, 6.64 µM; with MGC-803, 7.4 µM.

For the compound `Cc1ccc(CNS(=O)(=O)c2ccc3c4c(cccc24)C(=O)N(CCN2CCCC2)C3=O)cc1`, the Kd in series [1] stood at 17.3 µM. The IC50 in the series on NCI-H460 was determined as 8.25 µM; in the series on MCF7, 6.75 µM; in the series on T-24 it was 5.53 µM; in the series on SK-OV-3, 3.98 µM; with MGC-803 it was 4.17 µM.

Take `CC[C@@H]1C(=O)N(C)c2cnc(Nc3ccc(C(=O)N[C@H]4CC[C@H](N5CCN(CC6CC6)CC5)CC4)cc3OC)nc2N1C(C)C` [VOLASERTIB]: the Kd in series [1] turned out to be 0.9 µM.

In the case of `O=C1c2cccc3c(S(=O)(=O)NCc4ccccc4)ccc(c23)C(=O)N1CCN1CCCC1`, the Kd in series [1] was determined as 19.2 µM. Also, the IC50 was 17.6 µM with NCI-H460; 10.3 µM in the series on MCF7; 4.07 µM in the series with T-24; 7.05 µM in the series with SK-OV-3; 4.96 µM in the series with MGC-803.

On to `O=C1c2cccc3c(S(=O)(=O)NCc4ccc(F)cc4)ccc(c23)C(=O)N1CCN1CCCCC1`, for which the Kd in series [1] was found to be 3.95 µM. Besides, the IC50 in the series on NCI-H460 turned out to be 4.28 µM; in the series with MCF7 it was 9.62 µM; with T-24 it was 1.76 µM; in the series on SK-OV-3, 8.53 µM; with MGC-803, 5.43 µM.

`CN(C)CCN1C(=O)c2cccc3c(S(=O)(=O)NCc4ccccc4)ccc(c23)C1=O`: the Kd in series [1] was found to be 16.8 µM. Besides, the IC50 in the series on NCI-H460 worked out at 11.5 µM; in the series with MCF7, 14.7 µM; with T-24 it was 7.11 µM; in the series with SK-OV-3, 1.8 µM; in the series on MGC-803 it was 3.71 µM.

Regarding `COc1ccc(CNS(=O)(=O)c2ccc3c4c(cccc24)C(=O)N(CCN2CCCC2)C3=O)cc1`, the Kd in series [1] worked out at 16.8 µM. Also, the IC50 in the series with NCI-H460 was 5.37 µM; in the series with MCF7, 10.3 µM; in the series with T-24, 8.6 µM; in the series with SK-OV-3 it was 5.19 µM; with MGC-803, 4.04 µM.

For the compound `O=C1c2cccc3c(Sc4ccc([N+](=O)[O-])cc4)ccc(c23)C(=O)N1CCN1CCCC1`, the Kd in series [1] was determined as 15.4 µM. The IC50 with NCI-H460 was 15.6 µM; with MCF7 it was 10.8 µM; with T-24 it was 9.23 µM; in the series with SK-OV-3 it was 12.2 µM; with MGC-803, 11.2 µM; in the series on A549/CDDP it was > 20 µM. In addition, the logP in series [2] was determined as 4.26.

Turning to `O=C1c2cccc3c(S(=O)(=O)NCc4ccc(F)cc4)ccc(c23)C(=O)N1CCN1CCCC1`, the Kd in series [1] is 2.15 µM. Besides, the IC50 in the series with NCI-H460 was 2.8 µM; with MCF7, 3.29 µM; with T-24, 2.51 µM; in the series on SK-OV-3, 4.5 µM; with MGC-803 it was 3.41 µM.

Take `COc1ccc(CNS(=O)(=O)c2ccc3c4c(cccc24)C(=O)N(CCN2CCCCC2)C3=O)cc1`: in series [1], the Kd is 20.1 µM. Moreover, the IC50 with NCI-H460 came out at 5 µM; with MCF7 it was 18.2 µM; in the series with T-24, 4.51 µM; with SK-OV-3, 20.5 µM; with MGC-803, 8.1 µM.

Consider `O=C1c2cccc3c(S(=O)(=O)NCc4ccccc4)ccc(c23)C(=O)N1CCN1CCCCC1`, for which the Kd in series [1] amounted to 2.03 µM. The concentration for half-maximal inhibition (IC50) came to 8.17 µM in the series with NCI-H460; 15.4 µM with MCF7; 2.75 µM in the series on T-24; 12 µM in the series with SK-OV-3; 5.16 µM in the series with MGC-803.

As for `O=C1c2cccc3c(S(=O)(=O)NCc4ccc(C(F)(F)F)cc4)ccc(c23)C(=O)N1CCN1CCCC1`, the Kd in series [1] stood at 7.36 µM. Besides, the IC50 stood at 4.77 µM with NCI-H460; 5.01 µM in the series with MCF7; 4.99 µM with T-24; 4.22 µM with SK-OV-3; 3.38 µM in the series with MGC-803.

With `Cc1ccc(CNS(=O)(=O)c2ccc3c4c(cccc24)C(=O)N(CCN2CCCCC2)C3=O)cc1`, the Kd in series [1] was 20.9 µM. For the same compound, the IC50 was determined as 4.8 µM in the series with NCI-H460; 4.55 µM in the series on MCF7; 9.09 µM with T-24; 10.7 µM with SK-OV-3; 7.29 µM in the series on MGC-803.

Take `O=C1c2cccc3c(S(=O)(=O)NCc4ccc(C(F)(F)F)cc4)ccc(c23)C(=O)N1CCN1CCCCC1`: in series [1], the Kd is 4.24 µM. The IC50 is 4.29 µM with NCI-H460; 16.9 µM in the series on MCF7; 8.19 µM in the series on T-24; 9.21 µM with SK-OV-3; 5.56 µM in the series with MGC-803.

For the origin of these results see ChEMBL document CHEMBL5550126, “Identification of naphthalimide-derivatives as novel PBD-targeted polo-like kinase 1 inhibitors with efficacy in drug-resistant lung cancer cells” (Eur J Med Chem, 2024).
